Results from ChEMBL document CHEMBL1128912, “DNA cleavage of novel propargylic sulfones. Enhancement of potency via intercalating interaction” (Bioorg Med Chem Lett, 1996).

Test system: KB
Experiment: Cytotoxicity was evaluated by using KB/P cancer cells
Type: functional, cell-based
Conditions: Homo sapiens

O=S(=O)(CC#CCCCCC#CCO)c1ccccc1
IC50: 5.3 µM
